A short description of data set [1]: Reconstitution of Orbactiv 400 mg vial with aqueous HPCD: time to dissolve, pH and visual observation on storage. It counts as physicochemical. Particulars: for visible precipitation: over 24 hours; for time to go into solution (clear, colorless solution): 57.14 mg/mL; for pH: oritavancin 50 mg/mL. The protocol: Reconstituting Orbactiv 400 mg (Oritavancin) with 50% HPCD. 5.915 g of HPCD was dissolved in 11.83 mL of water to make a 50 wt % aqueous solution. 8 mL of the 50% HPCD solution was added to a 400 mg vial of Orbactiv for a target oritavancin concentration of 50 mg/mL. […] The pH was measured and the solution was stored at room temperature, protected from light, and observed over 24 hours for signs of precipitation (Table 1).
Reconstituting Orbactiv 400 mg (Oritavancin) in 20% w/v HPCD aqueous solution. 3.095 g HPCD was dissolved in 15.474 mL water to make a 20% w/v solution (pH=6.05). 8 mL of the 20% w/v HPCD solution was added to a 400 mg vial of Orbactiv for a target oritavancin concentration of 50 mg/mL. […] The pH was measured and the solution was stored at room temperature, protected from light, and observed over 24 hours for signs of precipitation (Table 3).
Reconstituting Orbactiv 400 mg (Oritavancin) in 50% w/v HPCD aqueous solution, adjusting pH then diluting in saline. 6.269 g of HPCD was dissolved in 12.538 mL of water to make a 50% w/v solution (pH=7.23). Seven (7) mL of the 50% w/v solution was added to a 400 mg vial of Orbactiv for a target oritavancin concentration of 57.14 mg/mL. […] A 2 mL aliquot of 57.14 mg/mL was removed from the vial and placed in a small glass vial. The pH was adjusted to 6.5 using 1N NaOH. NaOH was added to the oritavancin solution in 5 μL increments and vortexed. Visual observations and pH were recorded (Table 6).
Reconstituting Orbactiv 400 mg (Oritavancin) in 50% w/v aqueous HPCD, adjusting pH then diluting in saline. 6.112 g of HPCD was dissolved in 12.224 mL of water to make a 50% w/v solution (pH=6.74). Seven (7) mL of the 50% w/v HPCD solution was added to a 400 mg vial of Orbactiv for a target oritavancin concentration of 57.14 mg/mL. […] A 3 mL aliquot of 57.14 mg/mL was removed from the vial and placed in a small glass vial. The pH was adjusted to 7 using 1N NaOH. NaOH was added to the oritavancin solution in 5 μL increments and vortexed. Visual observations and pH were recorded (Table 8).
Reconstituting Orbactiv 400 mg (Oritavancin) in 20% w/v aqueous HPCD, adjusting pH then diluting in saline. 3.555 g of HPCD was dissolved in 17.775 mL of water to make a 20% w/v solution (pH=6.88). Seven (7) mL of the 20% w/v HPCD solution was added to a 400 mg vial of Orbactiv for a target oritavancin concentration of 57.14 mg/mL. […] A 3 mL aliquot of 57.14 mg/mL was removed from the vial and placed in a small glass vial. The pH was adjusted to 7 using 1N NaOH. NaOH was added to the oritavancin solution in 5 μL increments and vortexed. Visual observations and pH were recorded. (Table 10).
Reconstituting Orbactiv 400 mg (Oritavancin) in 20% w/v aqueous HPCD then diluting in Hank's Balanced Salt Solution (HBSS). 2.641 g of HPCD was dissolved in 13.205 mL of water to make a 20% w/v solution (pH=6.70). Eight (8) mL of the 20% w/v solution was added to a 400 mg vial of Orbactiv for a target oritavancin concentration of 50 mg/mL. […] A 1.5 mL aliquot of 50 mg/mL was removed from the vial and placed in a small glass vial and pH measured. Diluted 2 mL of 50 mg/mL oritavancin solution in 8 mL of HBSS. Visual observations and pH were recorded. (Table 12).

The nature of data set [2]: Pharmacokinetics in ABSSSI patients after single 1200 mg IV oritavancin (ORBACTIV) in 1000 mL D5W. Particulars: plasma; for AUC(0-t) / half-life: iv, 1200 mg. It counts as in vivo, human. The protocol:
Oritavancin (as ORBACTIV®) was evaluated in double-blind, controlled ABSSSI clinical trials, which included 976 adult patients treated with a single 1200 mg intravenous dose of oritavancin in 1000 mL D5W. The formulation was prepared by adding 40 mL of sterile water for injection (WFI) to each of three 400 mg vials of ORBACTIV® to provide a 10 mg/mL solution per vial. Each vial was gently swirled to avoid foaming and ensure that all ORBACTIV powder was completely reconstituted in solution. […] The three solutions were combined and diluted to 1000 mL total volume with 5% dextrose in sterile water (D5W), to give a 1.2 mg/mL solution of oritavancin. The formulation was administered to each subject intravenously over 3 hours, and PK was measured (Table 20). The median age of patients treated with oritavancin was 45.6 years, ranging between 18 and 89 years of age with 8.8%≧65 years of age. Patients treated with oritavancin were predominantly male (65.4%), 64.4% were Caucasian, 5.8% were African American, and 28.1% were Asian. Safety was evaluated for up to 60 days after dosing.

Where [3] appears, read: mean, ABSSSI subjects, single 1200 mg IV dose over 3 hours (n = 297).

Like-named read-outs stand apart in the source and are kept apart here. A value given as a limit tells only on which side of the number the result lay.

One may read the AUC as the area under the concentration-time curve, a measure of exposure. As a reminder, the AUC(0-inf) is total exposure, with the tail of the curve extrapolated. High values mean more exposure, low ones less exposure. As usually defined, the Cmax is the maximum level reached in the sampled fluid or tissue.

For `CN[C@H](CC(C)C)C(=O)N[C@H]1C(=O)N[C@@H](CC(N)=O)C(=O)N[C@H]2C(=O)N[C@H]3C(=O)N[C@H](C(=O)N[C@H](C(=O)O)c4cc(O)cc(O)c4-c4cc3ccc4O)[C@H](O[C@H]3C[C@](C)(N)[C@@H](O)[C@H](C)O3)c3ccc(c(Cl)c3)Oc3cc2cc(c3O[C@@H]2O[C@H](CO)[C@@H](O)[C@H](O)[C@H]2O[C@H]2C[C@](C)(NCc3ccc(-c4ccc(Cl)cc4)cc3)[C@@H](O)[C@H](C)O2)Oc2ccc(cc2Cl)[C@H]1O` [Oritavancin], the visible precipitation result in data set [1] (50 mg/mL in 20% w/v HPCD solution) and in data set [1] (50 mg/mL in 50% HPCD aqueous solution) was “did not show any sign of visible precipitation” in each case. The “time to go into solution (clear, colorless solution)” value in data set [1] (400 mg vial + 7 mL 20% w/v HPCD solution) was at most 5 min; in data set [1] (400 mg vial + 7 mL 20% w/v HPCD solution, listed as Orbactiv), 5 min; in data set [1] (400 mg vial + 7 mL 50% w/v HPCD solution) it was at most 5 min; in data set [1] (400 mg vial + 7 mL 50% w/v HPCD solution, listed as Orbactiv), 5 min. Moreover, the pH in data set [1] (reconstituted with 20% w/v aqueous HPCD, RT, 0 hr) is reported as 3.85; in data set [1] (reconstituted with 20% w/v aqueous HPCD, RT, 24 hr), 4.17; in data set [1] (reconstituted with 50% w/v HPCD in water, 0 hr) it was 3.94. For the same molecule, in data set [2] (both sexes, human, intravenous, 1200 mg dose in man, read-out: plasma exposure (AUC) in man), the AUC is around 2800 µg·h/mL. Also, the AUC(0-t) in data set [2] (both sexes, human, mean, ABSSSI subjects, single 1200 mg IV dose over 3 hours (n = 297), read-out: AUC0-24) worked out at 1110 µg·h/mL; in data set [2] (both sexes, human, mean, ABSSSI subjects, single 1200 mg IV dose over 3 hours (n = 297), read-out: AUC0-72), 1530 µg·h/mL. The half-life was 2.29 h in data set [2] (both sexes, human, mean, ABSSSI subjects, single 1200 mg IV dose over 3 hours (n = 297), read-out: T1/2,α (converted)); 13.4 h in data set [2] (both sexes, human, mean, ABSSSI subjects, single 1200 mg IV dose over 3 hours (n = 297), read-out: T1/2,β (converted)); 245 h in data set [2] (both sexes, human, mean, ABSSSI subjects, single 1200 mg IV dose over 3 hours (n = 297), read-out: T1/2,γ (converted)). Moreover, the Vd in data set [2] (both sexes, human, mean, ABSSSI subjects, single 1200 mg IV dose over 3 hours (n = 297), read-out: Vss) stood at 97.8 L. Further, the AUC(0-inf) in data set [2] (both sexes, human, per Orbactiv Package Insert (Comparative Example 4): 1200 mg IV, D5W, 3 h infusion) stood at 2800 µg·h/mL. Moreover, the Cmax in data set [2] (both sexes, human, per Orbactiv Package Insert (Comparative Example 4): 1200 mg IV, D5W, 3 h infusion, read-out: Cmax) was 138 µg/mL; in data set [2] (setting [3]), 138 µg/mL. The “AUC0-∞” value in data set [2] (setting [3]) stood at 2800 µg·h/mL.

Source of the values: US20170239323A1, “ORITAVANCIN FORMULATIONS” (The Medicines Company, priority 2016, published 2017).
